Where two headings read alike, the source gives them in different places.

Assay [1] deals with T1, human Dopamine D2L receptor (Homo sapiens, UniProt P14416).
T1 construct: expressed in transfected cells; host or cells: CHO cells
The experiment in a line: In vitro binding affinity for human D2L receptor ([3H]Spiperone binding). The conditions noted are these: human D2L receptor-transfected CHO cell membranes, read-out: D2L pIC50 (converted). As to the method: In Vitro Binding Affinity for Human D2L Receptor
Frozen membranes of human Dopamine D2L receptor-transfected CHO cells were thawed, briefly homogenised using an Ultra-Turrax T25 homogeniser and diluted in Tris-HCl assay buffer containing NaCl, CaCl2, MgCl2, KCl (50, 120, 2, 1, and 5 mM respectively, adjusted to pH 7.7 with HCl) to an appropriate protein concentration optimised for specific and non-specific binding. Radioligand [^3H]Spiperone (NEN, specific activity ˜70 Ci/mmol) was diluted in assay buffer at a concentration of 2 nmol/L. Prepared radioligand (50 μl), along with 50 μl of either the 10% DMSO control, Butaclamol (10^−6 mol/l final concentration), or compound of interest, was then incubated (30 min, 37° C.) with 400 μl of the prepared membrane solution. Membrane-bound activity was filtered through a Packard Filtermate harvester onto GF/B Unifilterplates and washed with ice-cold Tris-HCl buffer (50 mM; pH 7.7; 6×0.5 ml). Filters were allowed to dry before adding scintillation fluid and counting in a Topcount scintillation counter. Percentage specific bound and competition binding curves were calculated using S-Plus software (Insightful).

In assay [2] the target is T2, human cloned 5-HT2A receptor, expressed in L929 cells (Homo sapiens, UniProt P28223).
T2 construct: expressed in transfected cells; host or cells: L929 cells
T2 sequence (P28223 whole entry): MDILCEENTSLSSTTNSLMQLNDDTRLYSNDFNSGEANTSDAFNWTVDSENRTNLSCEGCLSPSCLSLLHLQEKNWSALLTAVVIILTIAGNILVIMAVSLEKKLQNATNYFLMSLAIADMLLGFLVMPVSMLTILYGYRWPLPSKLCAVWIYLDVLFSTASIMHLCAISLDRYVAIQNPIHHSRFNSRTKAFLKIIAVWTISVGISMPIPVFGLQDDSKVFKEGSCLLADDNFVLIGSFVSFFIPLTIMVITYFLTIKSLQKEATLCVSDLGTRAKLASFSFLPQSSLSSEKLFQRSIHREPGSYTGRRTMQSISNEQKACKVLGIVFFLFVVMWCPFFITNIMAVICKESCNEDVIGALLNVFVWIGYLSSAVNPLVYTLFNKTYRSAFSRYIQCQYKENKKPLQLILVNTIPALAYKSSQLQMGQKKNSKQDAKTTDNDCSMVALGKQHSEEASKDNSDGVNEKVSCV
As to the kind of experiment: In vitro binding affinity for 5-HT2A receptor ([125I]R91150 radioligand binding). As to the method: (§1) In Vitro Binding Affinity for 5-HT2A and 5-HT2C Receptors
(§2) The interaction of the compounds of Formula (I) with 5-HT2A and 5-HT2C receptors was assessed in in vitro radioligand binding experiments. […] During the incubation, the radioligands bind to the receptor. When equilibrium of binding is reached, the receptor bound radioactivity is separated from the non-bound radioactivity, and the receptor bound activity is counted. The interaction of the test compounds with the receptors is assessed in competition binding experiments. Various concentrations of the test compound are added to the incubation mixture containing the tissue preparation and the radioligand. Binding of the radioligand will be inhibited by the test compound in proportion to its binding affinity and its concentration. The affinities of the compounds for the 5-HT2 receptors were measured by means of radioligand binding studies conducted with: (a) human cloned 5-HT2A receptor, expressed in L929 cells using [^125I]R91150 as radioligand and (b) human cloned 5-HT2C receptor, expressed in CHO cells using [^3H]mesulergine as radioligand.

Assay [3] concerns the target T3, NET (norepinephrine transporter) (Rattus norvegicus, UniProt Q63380).
T3 construct: Cortex from rat brain was collected and homogenised; from tissue; host or cells: rat brain cortex
As to the kind of experiment: In vitro determination of NET reuptake inhibition ([3H]Nixosetine binding, rat brain cortex). The conditions noted are these: rat brain cortex, read-out: NET pIC50 (converted). Here is the method: In Vitro Determination of NET Reuptake Inhibition
Cortex from rat brain was collected and homogenised using an Ultra-Turrax T25 and a Dual homogeniser in ice-cold homogenising buffer containing Tris, NaCl and KCl (50 mM, 120 mM and 5 mM, respectively, pH 7.4) prior to dilution to an appropriate protein concentration optimised for specific and non-specific binding. […] Membrane-bound activity was detected by filtration through a Packard Filtermate harvester onto GF/B Unifilterplates, washed with ice-cold Tris-HCl buffer, containing NaCl and KCl (50 mM, 120 mM and 4 mM; pH 7.4; 6×0.5 ml). Filters were allowed to dry for 24 h before adding scintillation fluid. Scintillation fluid was allowed to saturate filters for 24 h before counting in a Topcount scintillation counter. Percentage specific bound and competition binding curves were calculated using S-Plus software (Insightful).

The target in assay [4] is T4, human cloned 5-HT2C receptor, expressed in CHO cells (Homo sapiens, UniProt P28335).
T4 construct: expressed in transfected cells; host or cells: CHO cells
T4 sequence (P28335 33-458): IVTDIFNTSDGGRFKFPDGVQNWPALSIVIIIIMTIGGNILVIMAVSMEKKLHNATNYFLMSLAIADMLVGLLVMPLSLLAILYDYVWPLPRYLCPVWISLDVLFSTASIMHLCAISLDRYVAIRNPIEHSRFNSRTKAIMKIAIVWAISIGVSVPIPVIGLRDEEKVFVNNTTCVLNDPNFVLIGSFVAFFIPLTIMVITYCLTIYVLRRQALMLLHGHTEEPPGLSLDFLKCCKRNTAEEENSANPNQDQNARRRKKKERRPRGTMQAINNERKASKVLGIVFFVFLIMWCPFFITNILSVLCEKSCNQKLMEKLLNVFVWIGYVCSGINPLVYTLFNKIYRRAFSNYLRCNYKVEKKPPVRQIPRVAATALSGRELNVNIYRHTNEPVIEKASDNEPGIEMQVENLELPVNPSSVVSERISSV
As to the kind of experiment: In vitro binding affinity for 5-HT2C receptor ([3H]mesulergine radioligand binding). The conditions noted are these: human cloned 5-HT2C receptor, read-out: 5-HT2C pIC50 (converted). Here is the method: as §1
as §2, with “concentration.” for “concentration. The affinities of the compounds for the 5-HT2 receptors were measured by means of radioligand binding studies conducted with: (a) human cloned 5-HT2A receptor, expressed in L929 cells using [^125I]R91150 as radioligand and (b) human cloned 5-HT2C receptor, expressed in CHO cells using [^3H]mesulergine as radioligand.”

The mark [5] stands for this setting: human cloned 5-HT2A receptor in L929 cells, [125I]R91150, read-out: 5-HT2A pIC50 (converted).

T1 sequence (P14416 whole entry): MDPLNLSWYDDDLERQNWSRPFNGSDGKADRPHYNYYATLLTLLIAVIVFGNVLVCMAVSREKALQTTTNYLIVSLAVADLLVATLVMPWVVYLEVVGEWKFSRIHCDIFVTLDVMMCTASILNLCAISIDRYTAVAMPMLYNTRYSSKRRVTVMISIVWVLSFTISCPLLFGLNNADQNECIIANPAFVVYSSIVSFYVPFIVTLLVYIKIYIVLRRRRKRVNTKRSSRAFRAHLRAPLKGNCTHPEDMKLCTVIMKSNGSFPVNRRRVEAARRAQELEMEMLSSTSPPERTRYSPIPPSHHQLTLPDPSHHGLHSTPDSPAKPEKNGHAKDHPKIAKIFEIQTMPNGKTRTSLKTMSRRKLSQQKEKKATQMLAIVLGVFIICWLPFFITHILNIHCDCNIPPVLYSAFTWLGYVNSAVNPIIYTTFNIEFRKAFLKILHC
T3 sequence (Q63380 1-617): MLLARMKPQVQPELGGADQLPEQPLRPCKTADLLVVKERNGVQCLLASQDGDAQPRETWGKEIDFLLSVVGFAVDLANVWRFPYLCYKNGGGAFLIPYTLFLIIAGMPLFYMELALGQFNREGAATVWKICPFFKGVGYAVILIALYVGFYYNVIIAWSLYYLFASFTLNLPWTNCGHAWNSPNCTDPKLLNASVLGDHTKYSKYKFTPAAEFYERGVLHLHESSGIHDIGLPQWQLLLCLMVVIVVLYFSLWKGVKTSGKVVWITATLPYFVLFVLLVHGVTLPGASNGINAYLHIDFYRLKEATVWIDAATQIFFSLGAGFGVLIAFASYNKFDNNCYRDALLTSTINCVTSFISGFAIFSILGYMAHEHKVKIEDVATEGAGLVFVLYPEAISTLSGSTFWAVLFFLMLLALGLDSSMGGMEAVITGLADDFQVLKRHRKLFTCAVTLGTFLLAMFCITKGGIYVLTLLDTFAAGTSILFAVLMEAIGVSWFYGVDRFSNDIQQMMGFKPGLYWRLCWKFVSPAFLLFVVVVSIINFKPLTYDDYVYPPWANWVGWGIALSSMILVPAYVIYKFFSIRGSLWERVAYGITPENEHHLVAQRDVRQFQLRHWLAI

For `OCCC1CCN(CC2CC3c4ccccc4Cc4ccc(F)cc4C3O2)C1` (mixture of isomers) [Compound 6], the IC50 is 4.07 nM in assay [1], 1.45 nM in assay [2] (setting [5]), 501 nM in assay [3] and 1.7 nM in assay [4].

Regarding `CN(C)C1CCN(CC2CC3c4ccccc4Cc4ccc(F)cc4C3O2)C1` (mixture of isomers) [Compound 9], the IC50 is 9.12 nM in assay [1], 9.12 nM in assay [2] (setting [5]), 4570 nM in assay [3] and 9.55 nM in assay [4].

Regarding `O=C(OC1CCN(CC2CC3c4ccccc4Cc4ccc(F)cc4C3O2)C1)C1CC1` (mixture of isomers) [Compound 13], the IC50 in assay [1] was 3.47 nM; in assay [2] (setting [5]), 0.912 nM; in assay [3], 5010 nM; in assay [4] it was 1.12 nM.

As for `O=C(OC1CCN(CC2CC3c4ccccc4Cc4ccc(F)cc4C3O2)C1)C1CCCC1` (mixture of isomers) [Compound 14], the IC50 was 3.89 nM in assay [1], 4.17 nM in assay [2] (setting [5]), 1230 nM in assay [3] and 3.31 nM in assay [4].

On to `Cc1ccc(C(=O)OC2CCN(CC3CC4c5ccccc5Cc5ccc(F)cc5C4O3)C2)cc1` (mixture of isomers) [Compound 15], for which the IC50 in assay [1] is 7.41 nM; in assay [2] (setting [5]), 7.94 nM; in assay [3], 2090 nM; in assay [4], 6.31 nM.

For `O=C(OC1CCN(CC2CC3c4ccccc4Cc4ccc(F)cc4C3O2)C1)c1ccc(F)cc1` (mixture of isomers) [Compound 16], the IC50 is 5.13 nM in assay [1], 5.62 nM in assay [2] (setting [5]), 2000 nM in assay [3] and 2.82 nM in assay [4].

`O=C(OC1CCN(CC2CC3c4ccccc4Cc4ccc(F)cc4C3O2)C1)c1ccc(F)cc1F` (mixture of isomers) [Compound 17]: the IC50 in assay [1] was 6.03 nM; in assay [2] (setting [5]), 5.75 nM; in assay [3] it was 1740 nM; in assay [4] it was 4.68 nM.

With `O=C(Cc1ccccc1)OC1CCN(CC2CC3c4ccccc4Cc4ccc(F)cc4C3O2)C1` (mixture of isomers) [Compound 18], the IC50 in assay [1] is 10.2 nM; in assay [2] it was 6.03 nM; in assay [3], 1780 nM; in assay [4], 3.63 nM.

`CCNC(=O)OCC1CCN(CC2CC3c4ccccc4Cc4ccc(F)cc4C3O2)C1` (mixture of isomers) [Compound 20]: the IC50 was 3.63 nM in assay [1], 0.832 nM in assay [2] (setting [5]), 1050 nM in assay [3] and 1.41 nM in assay [4].

As for `O=C(NC1CCCCC1)OCC1CCN(CC2CC3c4ccccc4Cc4ccc(F)cc4C3O2)C1` (mixture of isomers) [Compound 21], the IC50 was 7.24 nM in assay [1], 1.91 nM in assay [2] (setting [5]), 1450 nM in assay [3] and 2.88 nM in assay [4].

For the compound `O=C(Nc1ccccc1)OCC1CCN(CC2CC3c4ccccc4Cc4ccc(F)cc4C3O2)C1` (mixture of isomers) [Compound 22], the IC50 in assay [1] was 5.01 nM; in assay [2] (setting [5]) it was 3.09 nM; in assay [3] it was 2510 nM; in assay [4], 3.72 nM.

Take `O=C(NCc1ccccc1)OCC1CCN(CC2CC3c4ccccc4Cc4ccc(F)cc4C3O2)C1` (mixture of isomers) [Compound 24]: the IC50 in assay [1] is 4.27 nM; in assay [2] (setting [5]) it was 1.82 nM; in assay [3], 2690 nM; in assay [4], 1.45 nM.

On to `N#Cc1cccc(OC2CCN(CC3CC4c5ccccc5Cc5ccc(F)cc5C4O3)C2)c1` (mixture of isomers) [Compound 29], for which the IC50 was 14.5 nM in assay [1], 7.24 nM in assay [2] (setting [5]), 8510 nM in assay [3] and 3.39 nM in assay [4].

Take `COc1cccc(OC2CCN(CC3CC4c5ccccc5Cc5ccc(F)cc5C4O3)C2)c1` (mixture of isomers) [Compound 31]: the IC50 in assay [1] was 13.5 nM; in assay [2] (setting [5]) it was 9.77 nM; in assay [3] it was 4070 nM; in assay [4], 3.24 nM.

With `O=C(OCc1ccccc1)N1CCN(CC2CC3c4ccccc4Cc4ccc(F)cc4C3O2)CC1` (centres unmarked) [Compound 85], the values for the IC50 in assay [2] (setting [5]), in assay [3] and in assay [4] were 66.1 nM, over 10000 nM and 63.1 nM, respectively.

`O=C(Nc1ccccc1)NC1CCN(CC2CC3c4ccccc4Cc4ccc(F)cc4C3O2)CC1` (centres unmarked) [Compound 247]: the results for the IC50 in assay [1], in assay [3] and in assay [4] were 3.31 nM, 3550 nM and 2.69 nM, respectively.

Regarding `N#Cc1ccc(NC(=O)NC2CCN(CC3CC4c5ccccc5Cc5ccc(F)cc5C4O3)CC2)cc1` (centres unmarked) [Compound 248], the IC50 was 2.09 nM in assay [1], 3800 nM in assay [3] and 6.17 nM in assay [4].

Turning to `O=C(Nc1ccccc1Oc1ccccc1)NC1CCN(CC2CC3c4ccccc4Cc4ccc(F)cc4C3O2)CC1` (centres unmarked) [Compound 250], the IC50 is 37.2 nM in assay [1], 3890 nM in assay [3] and 20.4 nM in assay [4].

Turning to `CS(=O)(=O)CCCCNC(=S)NC1CCN(CC2CC3c4ccccc4Cc4ccc(F)cc4C3O2)CC1` (centres unmarked) [Compound 251], the figures for the IC50 in assay [1], in assay [3] and in assay [4] were 10.7 nM, 3630 nM and 8.51 nM, respectively.

For the compound `COCCNC(=S)NC1CCN(CC2CC3c4ccccc4Cc4ccc(F)cc4C3O2)CC1` (centres unmarked) [Compound 252], the IC50 was 11.5 nM in assay [1], 3240 nM in assay [3] and 6.61 nM in assay [4].

As for `Fc1ccc2c(c1)C1OC(CN3CCC(NC(=S)Nc4cccnc4)CC3)CC1c1ccccc1C2` (centres unmarked) [Compound 254], the IC50 was 12.3 nM in assay [1], 3470 nM in assay [3] and 20 nM in assay [4].

In the case of `COc1cc(NC(=S)NC2CCN(CC3CC4c5ccccc5Cc5ccc(F)cc5C4O3)CC2)cc(OC)c1OC` (centres unmarked) [Compound 255], the IC50 in assay [1] was 20.4 nM; in assay [3] it was 5620 nM; in assay [4], 20.4 nM.

`NCCNC(=S)NC1CCN(CC2CC3c4ccccc4Cc4ccc(F)cc4C3O2)CC1` (centres unmarked) [Compound 256]: the IC50 was 44.7 nM in assay [1], 6460 nM in assay [3] and 44.7 nM in assay [4].

As to `OCC1CC2CN(C[C@H]3C[C@@H]4c5ccccc5Cc5ccc(F)cc5[C@@H]4O3)CCC2O1` (stereo partly drawn) [Compound 274, [2R-(2α, 3aα, 12bβ)]-(2′RS,3a′RS, 7a′RS)[5-(11-fluoro-3,3a,8,12b-tetrahydro-2H-1-oxa-dibenzo[e,h]azulen-2-ylmethyl)-octahydro-furo[3,2-c]pyridin-2-yl]-methanol.oxalate (1:1)], the IC50 in assay [1] was 16.2 nM; in assay [3], over 10000 nM; in assay [4], 0.912 nM.

Values taken from patent US8569267B2, “Tetracyclic tetrahydrofuran derivatives containing cyclic amine side chain” (Janssen Pharmaceutica, NV, priority 2005, dated 2013).
